# Values quoted from earlier work as cited in paper PMC8287861 (Frontiers in Microbiology, 2021).
# Read-outs that look alike come from different tables or passages of the source.
# Legend:
# [1] = system: KPC-2; set-up: method as in Tsivkovski et al. (2020); details: KPC-2, class A; ref Tsivkovski et al. (2020)
# [2] = system: CTX-M-14; set-up: method as in Tsivkovski et al. (2020); details: CTX-M-14, class A; ref Tsivkovski et al. (2020)
# [3] = system: CTX-M-15; set-up: method as in Tsivkovski et al. (2020); details: CTX-M-15, class A; ref Tsivkovski et al. (2020)
# [4] = system: SHV-12; details: SHV-12, class A; ref Tsivkovski et al. (2020)
# [5] = system: P99; set-up: method as in Tsivkovski et al. (2020); details: P99, class C; ref Tsivkovski et al. (2020)
# [6] = system: OXA-48; set-up: method as in Tsivkovski et al. (2020); details: OXA-48, class D; ref Tsivkovski et al. (2020)
# [7] = system: OXA-23; set-up: method as in Tsivkovski et al. (2020); details: OXA-23, class D; ref Tsivkovski et al. (2020)
# [8] = system: VIM-1; set-up: method as in Tsivkovski et al. (2020); details: VIM-1, class B; ref Tsivkovski et al. (2020)
# [9] = system: IMP-1; set-up: method as in Tsivkovski et al. (2020); details: class B, ref Tsivkovski et al. (2020)
# [10] = target: KPC-2; details: ref Tsivkovski et al. (2020)
# [11] = target: KPC-3; set-up: method as in Tsivkovski et al. (2020); details: ref Tsivkovski et al. (2020)
# [12] = target: BKC-1; set-up: method as in Tsivkovski et al. (2020); details: ref Tsivkovski et al. (2020)
# [13] = target: FRI-1; set-up: method as in Tsivkovski et al. (2020); details: ref Tsivkovski et al. (2020)
# [14] = target: SME-2; set-up: method as in Tsivkovski et al. (2020); details: ref Tsivkovski et al. (2020)
# [15] = target: CTX-M-15; set-up: method as in Tsivkovski et al. (2020); details: ref Tsivkovski et al. (2020)
# [16] = target: SHV-12; set-up: method as in Tsivkovski et al. (2020); details: ref Tsivkovski et al. (2020)
# [17] = target: TEM-43; set-up: method as in Tsivkovski et al. (2020); details: ref Tsivkovski et al. (2020)
# [18] = target: P99; set-up: method as in Tsivkovski et al. (2020); details: ref Tsivkovski et al. (2020)
# [19] = target: OXA-48; set-up: method as in Tsivkovski et al. (2020); details: ref Tsivkovski et al. (2020)
# [20] = target: OXA-23; set-up: method as in Tsivkovski et al. (2020); details: ref Tsivkovski et al. (2020)
# [21] = target: OXA-24; set-up: method as in Tsivkovski et al. (2020); details: ref Tsivkovski et al. (2020)
# [22] = target: OXA-58; set-up: method as in Tsivkovski et al. (2020); details: ref Tsivkovski et al. (2020)
# [23] = target: VIM-1; set-up: method as in Tsivkovski et al. (2020); details: ref Tsivkovski et al. (2020)
# [24] = target: IMP-1; set-up: method as in Tsivkovski et al. (2020); details: ref Tsivkovski et al. (2020)
# [25] = system: isogenic strains of P. aeruginosa that produced KPC; set-up: method as in Lomovskaya et al., 2020a; details: ref Lomovskaya et al., 2020a; for PV50: potency to enhance biapenem activity;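 on PV50: read from a curve of biapenem MIC plotted against inhibitor concentration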
# [26] = system: KPC-producing porin/efflux mutants of K. pneumoniae; details: ref Lomovskaya et al., 2020a
# [27] = system: Acinetobacter baumannii mutants producing OXA-23; set-up: method as in Lomovskaya et al., 2020a; details: overexpression of efflux pumps; ref Lomovskaya et al., 2020a
# [28] = system: carbapenem-resistant strains of Enterobacterales (CRE); set-up: method as in Nelson et al. (2020a); details: with meropenem, ref Nelson et al. (2020a)
# [29] = system: ESBL and CRE producing strains of Enterobacterales; set-up: method as in Nelson et al. (2020a; 2020b); details: ref Nelson et al. (2020a; 2020b)
# [30] = system: carbapenem resistant Acinetobacter baumannii; details: in combination with meropenem; majority of the subsets of strains; ref Nelson et al., 2020b
# [31] = set-up: method as in Hecker et al., 2020; details: rats, doses of 30–100 mg/kg; ref Hecker et al., 2020
# [32] = set-up: method as in Sabet et al., 2020; details: plasma QPX7728 exposure associated with 8 μg/ml; ref Sabet et al., 2020
# [33] = inactivation of OmpK35 and OmpK36 and increased efflux
smiles,measurement,setting,value
O=C(O)c1c(F)ccc2c1OB(O)[C@@H]1C[C@H]21 [QPX7728],IC50,[1],2.9 ± 0.4 nM
same,IC50,[2],0.94 ± 0.2 nM
same,IC50,[3],1.2 ± 0.1 nM
same,IC50,[4],1.9 ± 0.6 nM
same,IC50,[5],22 ± 6 nM
same,IC50,[6],1.1 ± 0.4 nM
same,IC50,[7],1.2 ± 0.4 nM
same,IC50,[8],14 ± 4 nM
same,IC50,[9],610 ± 70 nM
same,Kd,[10],0.25 ± 0.03 nM
same,Kd,[11],0.31 ± 0.06 nM
same,Kd,[12],0.06 ± 0.005 nM
same,Kd,[13],0.11 ± 0.01 nM
same,Kd,[14],0.15 ± 0.02 nM
same,Kd,[15],0.11 ± 0.02 nM
same,Kd,[16],28 ± 4 nM
same,Kd,[17],0.17 ± 0.02 nM
same,Kd,[18],0.53 ± 0.06 nM
same,Kd,[19],0.13 ± 0.01 nM
same,Kd,[20],1.6 ± 0.2 nM
same,Kd,[21],0.58 ± 0.1 nM
same,Kd,[22],3.2 ± 0.3 nM
same,Kd,[23]; VIM-1 (text b23 calls it Ki),7.5 ± 2.1 nM
same,Ki,"[23]; VIM-1, competitive inhibitor",~7 nM
same,Kd,[24]; IMP-1 (text b23 calls it Ki),240 ± 30 nM
same,Ki,"[24]; IMP-1, competitive inhibitor",~240 nM
same,PV50,"[25]; PAM4126, mexR (MexAB-OprM)",2 µg/mL
same,PV50,"[25]; PAM4129, nfxB (MexCD-OprJ)",0.5 µg/mL
same,PV50,"[25]; PAM4132, mexT (MexEF-OprM)",1 µg/mL
same,PV50,"[25]; PAM4150, mexZ (MexXY-OprM)",1 µg/mL
same,PV50,"[25]; PAM4224, Wild-type",1 µg/mL
same,PV50,"[25]; PAM4365, MexA::Tet",1 µg/mL
same,reduction in potency,[25]; mexAB-oprM efflux operon overexpressed,No more than two-fold reduction in potency
same,effect of inactivation of the carbapenem porin OprD on potency,[25],did not have any effect
same,potency to completely inhibit KPC,[26]; before porin/efflux mutations,0.125 µg/mL
same,potency to completely inhibit KPC,[26]; [33],4 µg/mL
same,reduction of the potency to completely inhibit KPC,[26]; [33],ca. 32 fold
same,effect of efflux on potency to inhibit β-lactamase,[27],no effect of efflux on the potency
same,TPC90,"[28]; 598 CRE, breakpoint of 8 μg/ml",4 µg/mL
same,TPC90,[28]; subsets with carbapenemase production and non-β-lactamase-mediated resistance mechanisms,4 to 8 µg/mL
same,TPC90,[29]; in combination with aztreonam at 8 μg/ml (FDA susceptible breakpoint),4 µg/mL
same,TPC90,[29]; in combination with cefepime at 8 μg/ml (FDA susceptible breakpoint),4 µg/mL
same,TPC90,[30],less than or equal to 8 μg/ml
same,oral bioavailability,[31],43–53%
same,efficacy of plasma exposure,[32],efficacious in animal models of infection
